Measured values published in ChEMBL document CHEMBL1131730, “Isolation and characterization of an active-site peptide from a sterol methyl transferase with a mechanism-based inhibitor” (Bioorg Med Chem Lett, 1999).

Key:
[1] = (§1) Rate of inactivation of sterol methyl transferase from Saccharomyces cerevisiae using mechanism based inhibitor
Saccharomyces cerevisiae = assay: as §1; type: organism-based; conditions: in vivo

CC(C)C(C)CC[C@@H](C)C1CCC2C3=C(CCC21C)C1(C)CCC(O)CC1CC3 (some centres not stated)
Ki [1]: 1100 nM
Ki inact (Saccharomyces cerevisiae): 1.52 min⁻¹
